Data on three compounds can be found in paper PMC5750217 (Nature Communications, 2018).

The target of the assay is T1, A1-T458S/T459C (mutant ASCT1) (Homo sapiens, UniProt P43007, T458S/T459C).
T1 construct: expressed in transfected cells; host or cells: Xenopus laevis oocytes (cRNA injection)
T1 sequence (P43007 1-532 T458S/T459C): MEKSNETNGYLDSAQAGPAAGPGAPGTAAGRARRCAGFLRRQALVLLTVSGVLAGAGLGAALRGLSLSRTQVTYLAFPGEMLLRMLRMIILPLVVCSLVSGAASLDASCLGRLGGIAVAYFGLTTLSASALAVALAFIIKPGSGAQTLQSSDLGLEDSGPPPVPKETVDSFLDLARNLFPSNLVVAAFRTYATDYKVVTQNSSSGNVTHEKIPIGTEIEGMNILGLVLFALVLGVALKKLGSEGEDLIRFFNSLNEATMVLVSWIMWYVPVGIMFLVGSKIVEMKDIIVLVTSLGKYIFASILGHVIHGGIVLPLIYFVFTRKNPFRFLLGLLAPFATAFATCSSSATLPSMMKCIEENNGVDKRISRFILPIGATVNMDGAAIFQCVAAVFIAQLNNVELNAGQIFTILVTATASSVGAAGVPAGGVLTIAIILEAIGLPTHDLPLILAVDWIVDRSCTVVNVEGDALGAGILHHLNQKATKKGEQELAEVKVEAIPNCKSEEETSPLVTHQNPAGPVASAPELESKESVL
The experiment in a line: Two electrode voltage clamp, substrate-activated anion current in oocytes expressing A1-T458S/T459C. Format: cell-based. To be noted: for EC50: A1-T458S/T459C in oocytes, NO3−-containing buffer, current at +60 mV. The method, then: All chemicals were obtained from Sigma unless otherwise stated. Stage V oocytes were harvested from female Xenopus laevis (frogs) which were obtained from Nasco (Fort Alkinson, USA). Frogs were anaesthetised with 6.5 mM tricaine neutralised with 7.14 mM sodium bicarbonate. After making an incision in the abdomen of the frog, ovarian sacs were removed and stored in OR-2 buffer (82.5 mM NaCl, 2 mM KCl, 1 mM MgCl2, 5 mM hemisodium HEPES, pH 7.5). This surgical procedure follows a protocol (#2016/970) approved by the University of Sydney Animal Ethics Committee under the Australian Code of Practice for the Care and Use of Animals for Scientific Purposes. To isolate oocytes, the ovarian sacs were cut into small sections before being digested by agitation with 2 mg per ml Collagenase A for 1–2 h. Following digestion, defoliculated oocytes were initially rinsed with OR-2, followed by frog Ringer’s solution (96 mM NaCl, 2 mM KCl, 1 mM MgCl2, 1.8 mM CaCl2, 5 mM hemisodium HEPES, pH 7.5). A total of 20 ng of transporter cRNA was injected into oocytes which were stored in frog Ringer’s solution supplemented with 0.1% gentamycin, 50 μg per ml tetracycline, 2.5 mM pyruvate and 0.5 mM theophylline at 16–18 °C.
After 2–4 days of microinjection, current recordings were made using the two electrode voltage clamp technique with a Geneclamp 500 amplifier (Axon Instruments, Foster City, CA) interfaced with a MacLab 2e chart recorder (ADI Instruments, Sydney, Australia) using the chart software, and a Digidata 1322A (Axon Instruments) controlled by an IBM-compatible computer using the pClamp software (version 10, Molecular Devices, Union City, CA). The current–voltage relationships for substrate elicited conductances were obtained by subjecting cells to 200 ms voltage pulses between −100 mV and + 60 mV in 10 mV steps. Current–voltage relationships were calculated by subtracting steady state current measurements in the absence of substrate from corresponding current measurements in the presence of substrate.
Recording solution for all experiments (except where otherwise stated) was normal frog Ringer’s solution (Cl^−-containing buffer) with complete NO3 ^− substitution for Cl^−. For Na^+ titrations, NMDG^+ was used as the substitute cation. The pH of recording solutions was adjusted using HNO3 and NaOH or KOH. Recordings were made with the bath grounded via a 3 M KCl/agar bridge connected to a 3 M KCl reservoir to minimise offset potentials. Cells were washed with Cl^−-containing buffer between substrate applications to ensure that NO3 loading of the cell was not significant. […]
In general terms: Two-electrode voltage clamp is typically applied to oocytes expressing channels or transporters.

As to `N[C@@H](CO)C(=O)O` [L-serine], the EC50 is 45 ± 5 µM. For the compound `N[C@@H](CCC(=O)Nc1ccc([N+](=O)[O-])cc1)C(=O)O` [GPNA, glutamyl-p-nitroanilide], the “GPNA % inhibition of L-serine activated current” value (A1-T458S/T459C, GPNA co-applied with EC50 of L-serine, 300 µM GPNA / 1 mM GPNA (Table 1 footnote)) was 41 ± 4%. Further, for the setting “A1-T458S/T459C, co-applied with EC50 of L-serine, read-out: IC50 for inhibition of L-serine activated current”, the IC50 amounted to 600 ± 200 µM. In the case of `NC(=O)CC[C@H](N)C(=O)O` [L-glutamine], the midpoint of the response, the EC50, lay at 90 ± 10 µM.

One may read the EC50 as the concentration giving half of the maximal effect. The low end stands for an effect from little substance, the high end for a need for much substance. One may read the IC50 as the concentration needed to halve the response being measured.
